Reference: patent publication US20120053165A1, “Novel Phenyl Imidazoles and Phenyl Triazoles As Gamma-Secretase Modulators” (Pfizer Inc., priority 2009, published 2012)
Counter-ions that a name gives are not always drawn. Like-named read-outs stand apart in the source and are kept apart here.

System: production of amyloid beta protein Aβ(1-42) in human WT-APP overexpressing CHO cells
[1] = read-out: Aβ 42 IC50, Geometric mean of 2-8 determinations, human WT-APP overexpressing CHO cells
[2] = Homo sapiens, CHO, read-out: Aβ 42 IC50, Single IC50 determination, human WT-APP overexpressing CHO cells
[3] = Homo sapiens, CHO, read-out: Aβ 42 IC50, Geometric mean of 2-8 determinations, human WT-APP overexpressing CHO cells
[4] = Homo sapiens, CHO, read-out: Aβ 42 IC50
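Also: Aβ(1-42) released into conditioned medium captured by ELISA after roughly 24 h compound exposure, vehicle and inhibitor controls defining maximal and minimal inhibition.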

Protocol: Cell-Based γ-Secretase Assay with ELISA Readout
The ability of compounds to modulate production of amyloid beta protein Aβ(1-42) was determined using human WT-APP overexpressing CHO cells. Cells were plated at 22,000 cells/100 μL well in 96 well tissue culture treated, clear plates (Falcon) in DMEM/F12 based medium and incubated for 24 hours at 37° C. […] Compounds were added in fresh medium to achieve 1% final DMSO. Appropriate vehicle and inhibitor controls were added to obtain maximum and minimum inhibition values for the assay before the plates were incubated for about 24 hours at 37° C.
Coating of ELISA assay plates was initiated by addition of 50 μL/well of an in house Aβ(1-42) specific antibody at (4 μg/mL) in 0.1 M NaHCO3 (pH 9.0) into black 384-well Maxisorp® plates (Nunc) and incubated overnight at 4° C. […] Ambient temperature incubation was allowed to proceed for a minimum of two hours before washing 2×100 μL with Wash Buffer (Dulbecco's PBS, 0.05% Tween 20). Assay Buffer (Dulbecco's PBS, 1.0% BSA (Sigma A7030), 0.05% Tween 20) 20 μL/well is then added.
After incubation overnight at 37° C., 5% CO2, 40 μL (in duplicate) of experimental conditioned media are transferred into wells of the blocked ELISA plates containing the capture antibody, followed by overnight incubation at 4° C.
After overnight incubation of the ELISA assay plates at 4° C., unbound Aβ peptides were removed thorough (4×100 μL) washes with Wash Buffer.

Structure (SMILES): COc1cc(C(=O)NCC(CO)c2cccc(C(F)(F)F)c2)ccc1-n1cnc(C)c1 (stereo not drawn) [Example 35, N-{3-hydroxy-2-[3-(trifluoro-methyl)phenyl]propyl}-3-methoxy-4-(4-methyl-1H-imidazol-1-yl) benzamide]
- IC50 [1]: 910 nM

Structure (SMILES): COc1cc(C(=O)NCC2(c3ccc(Cl)cc3)CCCC2)ccc1-n1cnc(C)c1 [Example 36, N-{[1-(4-chlorophenyl)cyclopentyl]methyl}-3-methoxy-4-(4-methyl-1H-imidazol-1-yl) benzamide]
- IC50 [1]: 209 nM

Structure (SMILES): COc1cc(C(=O)NCCc2nc3ccc(Cl)cc3o2)ccc1-n1cnc(C)c1 [Example 38, N-[2-(6-chloro-1,3-benzoxazol-2-yl)ethyl]-3-methoxy-4-(4-methyl-1H-imidazol-1-yl) benzamide]
- IC50 [1]: 354 nM

Structure (SMILES): COc1cc(C(=O)NCC2(c3ccc(Br)cc3)CC2)ccc1-n1cnc(C)c1 [Example 39, N-{[1-(4-bromophenyl)cyclopropyl]methyl}-3-methoxy-4-(4-methyl-1H-imidazol-1-yl) benzamide]
- IC50 (read-out: Aβ 42 IC50, Single IC50 determination, human WT-APP overexpressing CHO cells): 248 nM

Structure (SMILES): COc1cc(C(=O)NCC2C3CC4CC(C3)CC2C4)ccc1-n1cnc(C)c1 (stereo not drawn) [Example 40, N-(adamantan-2-ylmethyl)-3-methoxy-4-(4-methyl-1H-imidazol-1-yl)benzamide]
- IC50 [2]: 185 nM

Structure (SMILES): COc1cc(C(=O)NC(c2ccc(F)cc2)c2cccs2)ccc1-n1cnc(C)c1 (stereo not drawn) [Example 41, N-[(4-fluoro-phenyl)(2-thienyl)methyl]-3-methoxy-4-(4-methyl-1H-imidazol-1-yl)benzamide, trifluoroacetic acid salt]
- IC50 [3]: 328 nM

Structure (SMILES): COc1cc(C(=O)NCc2cccc(C(=O)c3ccccc3)c2)ccc1-n1cnc(C)c1 [Example 42, N-(3-benzoyl-benzyl)-3-methoxy-4-(4-methyl-1H-imidazol-1-yl) benzamide]
- IC50 [1]: 316 nM

Structure (SMILES): COc1cc(C(=O)NCc2ccc(C(=O)c3ccccc3)cc2)ccc1-n1cnc(C)c1 [Example 43, N-(4-benzoyl-benzyl)-3-methoxy-4-(4-methyl-1H-imidazol-1-yl) benzamide]
- IC50 [1]: 582 nM

Structure (SMILES): COc1cc(C(=O)NCc2csc(-c3cccs3)n2)ccc1-n1cnc(C)c1 [Example 44, 3-methoxy-4-(4-methyl-1H-imidazol-1-yl)-N-{[2-(2-thienyl)-1,3-thiazol-4-yl]methyl} benzamide]
- IC50 [1]: 575 nM

Structure (SMILES): COc1cc(C(=O)NCc2nc(-c3ccc(Cl)cc3)no2)ccc1-n1cnc(C)c1 [Example 45, N-{[3-(4-chlorophenyl)-1,2,4-oxadiazol-5-yl]methyl}-3-methoxy-4-(4-methyl-1H-imidazol-1-yl) benzamide, formic acid salt]
- IC50 [1]: 730 nM

Structure (SMILES): COc1cc(C(=O)NCC2CCCC2)ccc1-n1cnc(C)c1 [Example 47, N-cyclopentyl-methyl-3-methoxy-4-(4-methyl-imidazol-1-yl)-benzamide]
- IC50 [1]: 1200 nM

Structure (SMILES): COc1cc(C(=O)N[C@@H]2COC[C@@H]2Oc2ccc(Br)cc2)ccc1-n1cnc(C)c1 [Example 48, N-[(3R,4R)-4-(4-bromophenoxy)-tetrahydro-furan-3-yl]-3-methoxy-4-(4-methylimidazol-1-yl)benzamide]
- IC50 [3]: 1740 nM

Structure (SMILES): COc1cc(C(=O)NCc2ccc(-c3ccc(Cl)cc3)s2)ccc1-n1cnc(C)c1 [Example 49, N-{[5-(4-chlorophenyl)-2-thienyl]methyl}-3-methoxy-4-(4-methyl-1H-imidazol-1-yl) benzamide]
- IC50 [1]: 137 nM

Structure (SMILES): COc1cc(C(=O)NCc2csc(-c3ccc(C(F)(F)F)cc3)n2)ccc1-n1cnc(C)c1 [Example 50, 3-methoxy-4-(4-methyl-1H-imidazol-1-yl)-N-({2-[4-(trifluoromethyl)phenyl]-1,3-thiazol-4-yl}methyl)benzamide]
- IC50 [3]: 152 nM

Structure (SMILES): COc1cc(C(=O)NCCc2c(C)[nH]c3c(Cl)cc(Cl)cc23)ccc1-n1cnc(C)c1 [Example 51, N-[2-(5,7-dichloro-2-methyl-1H-indol-3-yl)ethyl]-3-methoxy-4-(4-methyl-1H-imidazol-1-yl)benzamide]
- IC50 [4]: 189 nM

Structure (SMILES): COc1cc(C(=O)NCCc2c[nH]c3ccc(Br)cc23)ccc1-n1cnc(C)c1 [Example 52, N-[2-(5-bromo-1H-indol-3-yl)ethyl]-3-methoxy-4-(4-methyl-1H-imidazol-1-yl) benzamide]
- IC50 [1]: 251 nM

Structure (SMILES): COc1cc(C(=O)NCc2csc(-c3ccc(Cl)cc3)n2)ccc1-n1cnc(C)c1 [Example 53, N-{[2-(4-chlorophenyl)-1,3-thiazol-4-yl]methyl}-3-methoxy-4-(4-methyl-1H-imidazol-1-yl) benzamide]
- IC50 [1]: 306 nM

Structure (SMILES): COc1cc(C(=O)NCc2ccc(F)c(Cl)c2)ccc1-n1cnc(C)c1 [Example 54, N-(3-chloro-4-fluorobenzyl)-3-methoxy-4-(4-methyl-1H-imidazol-1-yl)benzamide]
- IC50 [3]: 326 nM

Structure (SMILES): COc1cc(C(=O)NCc2cccc(OC(F)(F)F)c2)ccc1-n1cnc(C)c1 [Example 55, 3-methoxy-4-(4-methyl-1H-imidazol-1-yl)-N-[3-(trifluoromethoxy)benzyl]benzamide]
- IC50 [3]: 332 nM

Structure (SMILES): COc1cc(C(=O)NC(C)COc2c(C)cccc2C)ccc1-n1cnc(C)c1 (stereo not drawn) [Example 56, N-[2-(2,6-dimethyl-phenoxy)-1-methylethyl]-3-methoxy-4-(4-methyl-1H-imidazol-1-yl) benzamide]
- IC50 [1]: 337 nM

Structure (SMILES): COc1cc(C(=O)NCc2ccc(OC(F)(F)F)cc2)ccc1-n1cnc(C)c1 [Example 57, 3-methoxy-4-(4-methyl-1H-imidazol-1-yl)-N-[4-(trifluoro-methoxy)benzyl] benzamide]
- IC50 [1]: 339 nM

Structure (SMILES): COc1cc(C(=O)NCc2sc3c(F)ccc(F)c3c2Cl)ccc1-n1cnc(C)c1 [Example 58, N-[(3-chloro-4,7-difluoro-1-benzothien-2-yl)methyl]-3-methoxy-4-(4-methyl-1H-imidazol-1-yl) benzamide]
- IC50 [1]: 346 nM

Structure (SMILES): COc1cc(C(=O)NCc2ccc(Cl)cc2C)ccc1-n1cnc(C)c1 [Example 59, N-(4-chloro-2-methylbenzyl)-3-methoxy-4-(4-methyl-1H-imidazol-1-yl) benzamide]
- IC50 [1]: 351 nM

Structure (SMILES): COc1cc(C(=O)NCc2cccc(Oc3ccccc3)c2)ccc1-n1cnc(C)c1 [Example 60, 3-methoxy-4-(4-methyl-1H-imidazol-1-yl)-N-(3-phenoxybenzyl) benzamide]
- IC50 [1]: 353 nM

Structure (SMILES): COc1cc(C(=O)NCCCCc2ccccc2)ccc1-n1cnc(C)c1 [Example 61, 3-methoxy-4-(4-methyl-1H-imidazol-1-yl)-N-(4-phenyl-butyl)benzamide]
- IC50 [3]: 356 nM

Structure (SMILES): COc1cc(C(=O)NCc2cc(F)cc(C(F)(F)F)c2)ccc1-n1cnc(C)c1 [Example 62, N-[3-fluoro-5-(trifluoromethyl)benzyl]-3-methoxy-4-(4-methyl-1H-imidazol-1-yl) benzamide]
- IC50 [1]: 369 nM

Structure (SMILES): COc1cccc(C[C@@H]2CCC[C@@H]2NC(=O)c2ccc(-n3cnc(C)c3)c(OC)c2)c1 [Example 63, 3-methoxy-N-[(1S,2S)-2-(3-methoxybenzyl)cyclopentyl]-4-(4-methyl-1H-imidazol-1-yl) benzamide]
- IC50 [1]: 391 nM

Structure (SMILES): COc1cc(C(=O)NCCc2ccc(C)c(C)c2)ccc1-n1cnc(C)c1 [Example 64, N-[2-(3,4-dimethyl-phenyl)ethyl]-3-methoxy-4-(4-methyl-1H-imidazol-1-yl)benzamide]
- IC50 [4]: 395 nM

Structure (SMILES): COc1cccc(C2(CNC(=O)c3ccc(-n4cnc(C)c4)c(OC)c3)CCCC2)c1 [Example 65, 3-methoxy-N-{[1-(3-methoxyphenyl)cyclopentyl]methyl}-4-(4-methyl-1H-imidazol-1-yl) benzamide]
- IC50 [1]: 410 nM

Structure (SMILES): COc1cc(C(=O)NCc2ccc(F)c(C(F)(F)F)c2)ccc1-n1cnc(C)c1 [Example 66, N-[4-fluoro-3-(trifluoromethyl)benzyl]-3-methoxy-4-(4-methyl-1H-imidazol-1-yl) benzamide]
- IC50 [1]: 410 nM

Structure (SMILES): COc1cc(C(=O)NCc2ccc(Cl)c(Cl)c2)ccc1-n1cnc(C)c1 [Example 67, N-(3,4-dichlorobenzyl)-3-methoxy-4-(4-methyl-1H-imidazol-1-yl) benzamide]
- IC50 [1]: 410 nM

Structure (SMILES): COc1cc(C(=O)NCCc2nc3cccc(Cl)c3o2)ccc1-n1cnc(C)c1 [Example 68, N-[2-(7-chloro-1,3-benzoxazol-2-yl)ethyl]-3-methoxy-4-(4-methyl-1H-imidazol-1-yl) benzamide]
- IC50 [1]: 418 nM

Structure (SMILES): COc1cc(C(=O)N2CC[C@@H](Oc3ccccc3C(F)(F)F)C2)ccc1-n1cnc(C)c1 [Example 69, 1-[2-methoxy-4-({(3R)-3-[2-(trifluoromethyl)phenoxy]pyrrolidin-1-yl}carbonyl)phenyl]-4-methyl-1H-imidazole]
- IC50 [2]: 421 nM

Structure (SMILES): COc1cc(C(=O)NCc2sc3ccccc3c2Cl)ccc1-n1cnc(C)c1 [Example 70, N-[(3-chloro-1-benzothien-2-yl)methyl]-3-methoxy-4-(4-methyl-1H-imidazol-1-yl) benzamide]
- IC50 [1]: 425 nM

Structure (SMILES): COc1cc(C(=O)NCCc2cc(C)ccc2C)ccc1-n1cnc(C)c1 [Example 71, N-[2-(2,5-dimethylphenyl)ethyl]-3-methoxy-4-(4-methyl-1H-imidazol-1-yl) benzamide]
- IC50 [1]: 429 nM

Structure (SMILES): COc1cc(C(=O)N[C@@H]2CCC[C@@H]2Cc2ccccc2)ccc1-n1cnc(C)c1 [Example 72, N-[(1R,2R)-2-benzylcyclopentyl]-3-methoxy-4-(4-methyl-1H-imidazol-1-yl) benzamide]
- IC50 [1]: 442 nM

Structure (SMILES): COc1cc(C(=O)NCCc2c(C)[nH]c3ccc(C)cc23)ccc1-n1cnc(C)c1 [Example 73, N-[2-(2,5-dimethyl-1H-indol-3-yl)ethyl]-3-methoxy-4-(4-methyl-1H-imidazol-1-yl)benzamide]
- IC50 [4]: 444 nM

Structure (SMILES): COc1cc(C(=O)NCC(C)Oc2ccccc2Cl)ccc1-n1cnc(C)c1 (stereo not drawn) [Example 74, N-[2-(2-chlorophenoxy)propyl]-3-methoxy-4-(4-methyl-1H-imidazol-1-yl)benzamide]
- IC50 [3]: 466 nM

Structure (SMILES): COc1cc(C(=O)NCc2ccccc2OC(F)(F)F)ccc1-n1cnc(C)c1 [Example 75, 3-methoxy-4-(4-methyl-1H-imidazol-1-yl)-N-[2-(trifluoromethoxy)benzyl] benzamide]
- IC50 [1]: 469 nM
